Test results as given in US20220313698A1, “MODULATORS OF CYSTIC FIBROSIS TRANSMEMBRANE CONDUCTANCE REGULATOR” (Vertex Pharmaceuticals Incorporated, priority 2019, published 2022).

Target: CFTR-mediated chloride transport (Homo sapiens, UniProt P13569)
Assay: Corrector Assay A - membrane potential dye assay (enteroid cells)
Conditions: for Corrector Assay A % activity: % of chloride transport of triple combination control (1 μM (14S)-dispiro macrocycle + 3 μM tezacaftor + 300 nM ivacaftor); for EC50: read-out: Corrector Assay A EC50, human intestinal enteroid cells, 18-24 h incubation, acute 10 μM forskolin + 300 nM ivacaftor

Corrector Assay A % activity | EC50 [nM] | Compound
++ (++ is 30-60%) | < 1000 | CC(C)(C)c1ccc2c(n1)N1C[C@@H](CCC(c3ccc(CN)cn3)Nc3cccc(n3)S(=O)(=O)NC2=O)CC1(C)C (single isomer, unassigned) [Compound 197]
+++ (+++ is >60%) | < 1000 | CC1(C)C[C@@H]2CC[C@H](c3ccccn3)Nc3cccc(n3)S(=O)(=O)NC(=O)c3ccc(-c4cccc(F)n4)nc3N1C2 [Compound 318, (14S,17R)-8-(6-fluoropyridin-2-yl)-12,12-dimethyl-17-(pyridin-2-yl)-2λ^6-thia-3,9,11,18,23-pentaazatetracyclo[17.3.1.111,14.05,10]tetracosa-1(22),5,7,9,19(23),20-hexaene-2,2,4-trione]
+++ (+++ is >60%) | < 1000 | CC(C)C1CC[C@@H]2CN(c3nc(-n4ccc(OCCC5C6(CC6)C56CC6)n4)ccc3C(=O)NS(=O)(=O)c3cccc(n3)N1)C(C)(C)C2 (single isomer, unassigned) [Compound 354]
+++ (+++ is >60%) | < 1000 | CC(C)Cc1ccc(C2CC[C@@H]3CN(c4nc(C(C)(C)C)ccc4C(=O)NS(=O)(=O)c4cccc(n4)N2)C(C)(C)C3)nc1 (stereo partly shown) [Compound 180]
+++ (+++ is >60%) | < 1000 | CC(C)(O)/C=C/CC1CC[C@@H]2CN(c3nc(C(C)(C)C)ccc3C(=O)NS(=O)(=O)c3cccc(n3)N1)C(C)(C)C2 (single isomer, unassigned) [Compound 23]
+++ (+++ is >60%) | < 1000 | CC(C)N(C(=O)CCCC1CC[C@@H]2CN(c3nc(C(C)(C)C)ccc3C(=O)NS(=O)(=O)c3cccc(n3)N1)C(C)(C)C2)C(C)C (stereo partly drawn) [Compound 17, 4-[(14S)-8-tert-butyl-12,12-dimethyl-2,2,4-trioxo-2λ^6-thia-3,9,11,18,23-pentaazatetracyclo[17.3.1.111,14.05,10]tetracosa-1(23),5(10),6,8,19,21-hexaen-17-yl]-N,N-bis(propan-2-yl)butanamide]
+++ (+++ is >60%) | < 1000 | CC(C)(C)c1ccc2c(n1)N1C[C@@H](CCC(c3cc(Cl)ccn3)Nc3cccc(n3)S(=O)(=O)NC2=O)CC1(C)C (single isomer, unassigned) [Compound 127]
++ (++ is 30-60%) | < 1000 | CC(C)(C)c1ccc2c(n1)N1C[C@@H](CCC(c3cc(Br)ccn3)Nc3cccc(n3)S(=O)(=O)NC2=O)CC1(C)C (single isomer, unassigned) [Compound 47]
+++ (+++ is >60%) | < 1000 | Cc1ccc2nc3c(cc2c1)C(=O)NS(=O)(=O)c1cccc(n1)N[C@H](c1cc(C(C)(C)C)ccn1)CC[C@@H]1CN3C(C)(C)C1 (single isomer, unassigned) [Compound 5]
++ (++ is 30-60%) | < 1000 | CN(C)Cc1ccc(C2CC[C@@H]3CN(c4nc(C(C)(C)C)ccc4C(=O)NS(=O)(=O)c4cccc(n4)N2)C(C)(C)C3)nc1 (stereo partly shown) [Compound 103]
++ (++ is 30-60%) | < 1000 | CC(C)(C)c1ccc2c(n1)N1C[C@@H](CCC(C3CCN(CCC(F)(F)F)CC3)Nc3cccc(n3)S(=O)(=O)NC2=O)CC1(C)C (stereo partly drawn) [Compound 238, (14S)-8-tert-butyl-12,12-dimethyl-17-[1-(3,3,3-trifluoropropyl)piperidin-4-yl]-2λ^6-thia-3,9,11,18,23-pentaazatetracyclo[17.3.1.111,14.05,10]tetracosa-1(23),5(10),6,8,19,21-hexaene-2,2,4-trione]
++ (++ is 30-60%) | < 1000 | CC(C)(C)c1ccc2c(n1)N1C[C@@H](CCC(c3ccc(Br)cn3)Nc3cccc(n3)S(=O)(=O)NC2=O)CC1(C)C (single isomer, unassigned) [Compound 171]
+ (+ is <30%) |  | CC(C)(C)c1ccnc(C2CC[C@@H]3CN(c4nc(C(C)(C)C)ncc4C(=O)NS(=O)(=O)c4cccc(n4)N2)C(C)(C)C3)c1 (single isomer, unassigned) [Compound 1]
